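Following 48 hours of exposure in 96-well plates, responses at five concentrations were used to interpolate endpoints linearly. The concentration for 50% growth inhibition is given as GI50.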 Active and inactive are the calls of the source. Rule as the data show it: active = GI50 up to about 1.1 µM and inactive = higher.
Tests used:
Experiment in all cases: DTP human tumour cell line panel, 48 h
SNB-19 = tested on: SNB-19
786-0 = tested on: 786-0
SNB-75 = tested on: SNB-75
NCI/ADR-RES = tested on: NCI/ADR-RES
UACC-62 = tested on: UACC-62
MOLT-4 = tested on: MOLT-4
U-251 = tested on: U-251
ACHN = tested on: ACHN
SF-295 = tested on: SF-295
HCT-15 = tested on: HCT-15
A549 = tested on: A549
HT-29 = tested on: HT-29
KM12 = tested on: KM12
TK-10 = tested on: TK-10
OVCAR-5 = tested on: OVCAR-5
SK-MEL-5 = tested on: SK-MEL-5
UACC-257 = tested on: UACC-257
CAKI-1 = tested on: CAKI-1
OVCAR-3 = tested on: OVCAR-3

| SMILES | GI50 (SNB-19) | GI50 (786-0) | GI50 (SNB-75) | GI50 (NCI/ADR-RES) | GI50 (UACC-62) | GI50 (MOLT-4) | GI50 (U-251) | GI50 (ACHN) | GI50 (SF-295) | GI50 (HCT-15) [µM] | GI50 (A549) | GI50 (HT-29) | GI50 (KM12) | GI50 (TK-10) | GI50 (OVCAR-5) | GI50 (SK-MEL-5) | GI50 (UACC-257) | GI50 (CAKI-1) | GI50 (OVCAR-3) |
| --- | --- | --- | --- | --- | --- | --- | --- | --- | --- | --- | --- | --- | --- | --- | --- | --- | --- | --- | --- |
| CC12CCC(C1)C(C)(C)C2OC(=O)c1ccccc1C(=O)O (stereo unspecified) | > 100 µM (inactive) | > 100 µM (inactive) | > 100 µM (inactive) | > 100 µM (inactive) | > 100 µM (inactive) | > 100 µM (inactive) | > 100 µM (inactive) | > 100 µM (inactive) | > 100 µM (inactive) | > 100 | > 100 µM (inactive) | > 100 µM (inactive) | > 100 µM (inactive) | > 100 µM (inactive) | > 100 µM (inactive) | > 100 µM (inactive) | > 100 µM (inactive) | > 100 µM (inactive) |  |
| CN(C)CCN1C(=O)N(CCN(C)C)c2c3cc(O)ccc3nc3c([N+](=O)[O-])ccc1c23 | 6.05 µM (inactive) | 6.62 µM (inactive) | 19.1 µM (inactive) | 19.4 µM (inactive) | 15.9 µM (inactive) |  | 9.93 µM (inactive) | 6.22 µM (inactive) |  | 6.52 | 9.12 µM (inactive) | 6.08 µM (inactive) | 7.91 µM (inactive) | 10.6 µM (inactive) |  | 13.7 µM (inactive) | 15.3 µM (inactive) | 13.1 µM (inactive) |  |
| CCCCCC(C)SC1(C(=O)OC)CC(OC(C)=O)C(NC(C)=O)C([C@H](OC(C)=O)[C@@H](COC(C)=O)OC(C)=O)O1 (stereo partly specified) | > 100 µM (inactive) | 47 µM (inactive) | > 100 µM (inactive) | > 100 µM (inactive) |  | 27.3 µM (inactive) | > 100 µM (inactive) | > 100 µM (inactive) | > 100 µM (inactive) | 34.5 | 21.2 µM (inactive) | 22.5 µM (inactive) | 66.7 µM (inactive) | > 100 µM (inactive) | > 100 µM (inactive) | 91.2 µM (inactive) | 33 µM (inactive) | 93.3 µM (inactive) | 90.4 µM (inactive) |
| COc1ccc(OC)c(NCC(=O)Nn2cnc3ccc(S(=O)(=O)Nc4cc(OC)ccc4OC)cc3c2=O)c1 | > 100 µM (inactive) | > 100 µM (inactive) | > 100 µM (inactive) | > 100 µM (inactive) | > 100 µM (inactive) | 31.2 µM (inactive) | > 100 µM (inactive) | > 100 µM (inactive) | 70.3 µM (inactive) | > 100 | 90.8 µM (inactive) | 45.5 µM (inactive) | 46 µM (inactive) | > 100 µM (inactive) | > 100 µM (inactive) |  | 82.6 µM (inactive) | > 100 µM (inactive) | > 100 µM (inactive) |
| Cn1cnc2c(sc3nc4ccccc4n32)c1=N | > 100 µM (inactive) | > 100 µM (inactive) | 11.2 µM (inactive) | > 100 µM (inactive) | > 100 µM (inactive) | > 100 µM (inactive) | > 100 µM (inactive) | > 100 µM (inactive) | 68.1 µM (inactive) | > 100 | > 100 µM (inactive) | > 100 µM (inactive) |  | > 100 µM (inactive) | > 100 µM (inactive) | > 100 µM (inactive) | > 100 µM (inactive) | > 100 µM (inactive) | > 100 µM (inactive) |
| COC(=O)NN=C(c1ccc(Cl)cc1)c1ccc(Cl)cc1 | > 100 µM (inactive) | > 100 µM (inactive) | 87.9 µM (inactive) | > 100 µM (inactive) | > 100 µM (inactive) | > 100 µM (inactive) | > 100 µM (inactive) |  |  | > 100 | 71.1 µM (inactive) | 58.6 µM (inactive) | > 100 µM (inactive) | 54.2 µM (inactive) | > 100 µM (inactive) | > 100 µM (inactive) | > 100 µM (inactive) | > 100 µM (inactive) | > 100 µM (inactive) |
| CC1=CCC(=O)[C@]2(C)C(CC(=O)O)[C@]3(C)C4=C(C)C(c5ccoc5)C[C@@H]4O[C@@H]3[C@H](O)[C@@H]12 (stereo partly specified) | > 100 µM (inactive) | > 100 µM (inactive) | > 100 µM (inactive) | > 100 µM (inactive) | > 100 µM (inactive) | > 100 µM (inactive) | > 100 µM (inactive) | > 100 µM (inactive) | > 100 µM (inactive) | > 100 | > 100 µM (inactive) |  | > 100 µM (inactive) | > 100 µM (inactive) | > 100 µM (inactive) | > 100 µM (inactive) | > 100 µM (inactive) | > 100 µM (inactive) | > 100 µM (inactive) |
| COc1cc(/C=C2\N=C(c3ccccc3)N(c3cc4cc(Sc5ccccc5)ccc4[nH]3)C2=O)cc(OC)c1OC | 23.2 µM (inactive) | 12.6 µM (inactive) | 12.7 µM (inactive) | 20.2 µM (inactive) | 10.1 µM (inactive) | 10.1 µM (inactive) |  | 18.4 µM (inactive) | 20.7 µM (inactive) | 14.4 | 19.5 µM (inactive) | 16.1 µM (inactive) | 15 µM (inactive) |  | 25.9 µM (inactive) | 10.6 µM (inactive) | 14.8 µM (inactive) | 17.3 µM (inactive) | 17.8 µM (inactive) |
| CN(C)CC(O)CNC(=O)Nc1ccccc1 (stereo unspecified) | > 100 µM (inactive) | > 100 µM (inactive) | > 100 µM (inactive) | > 100 µM (inactive) | > 100 µM (inactive) |  | > 100 µM (inactive) | > 100 µM (inactive) | > 100 µM (inactive) | > 100 | > 100 µM (inactive) | > 100 µM (inactive) | > 100 µM (inactive) | > 100 µM (inactive) | > 100 µM (inactive) | > 100 µM (inactive) | > 100 µM (inactive) | > 100 µM (inactive) | > 100 µM (inactive) |
| CC(=O)c1cc2c(Br)cccc2oc1=O | > 100 µM (inactive) | > 100 µM (inactive) | > 100 µM (inactive) | > 100 µM (inactive) | > 100 µM (inactive) | > 100 µM (inactive) | 63.4 µM (inactive) | > 100 µM (inactive) | > 100 µM (inactive) | > 100 | > 100 µM (inactive) | > 100 µM (inactive) |  | > 100 µM (inactive) | > 100 µM (inactive) | > 100 µM (inactive) | > 100 µM (inactive) | > 100 µM (inactive) | > 100 µM (inactive) |
| CN1CCCCC(C#N)(c2ccccc2)CC1 (stereo unspecified) | > 100 µM (inactive) | > 100 µM (inactive) | > 100 µM (inactive) | > 100 µM (inactive) |  | > 100 µM (inactive) | > 100 µM (inactive) | > 100 µM (inactive) | > 100 µM (inactive) | > 100 | > 100 µM (inactive) | > 100 µM (inactive) | > 100 µM (inactive) | > 100 µM (inactive) | > 100 µM (inactive) | > 100 µM (inactive) | > 100 µM (inactive) | > 100 µM (inactive) |  |
| CCc1cc(O)c(Cl)c(C)c1Cl | 30.3 µM (inactive) | 17.1 µM (inactive) | 18.9 µM (inactive) | 21.7 µM (inactive) | 15.1 µM (inactive) |  | 18 µM (inactive) | 15.7 µM (inactive) | 20 µM (inactive) | 17.4 | 23.1 µM (inactive) | 19.2 µM (inactive) | 15.2 µM (inactive) | 18.2 µM (inactive) | 20.6 µM (inactive) | 17.5 µM (inactive) | 17.2 µM (inactive) | 17.3 µM (inactive) | 18.2 µM (inactive) |
| CN1N=C(c2ccccc2)c2cc(Cl)ccc2N=C1N/N=C/c1ccc(N(C)C)cc1 | > 100 µM (inactive) | > 100 µM (inactive) | > 100 µM (inactive) | > 100 µM (inactive) | > 100 µM (inactive) | 62.7 µM (inactive) | > 100 µM (inactive) | > 100 µM (inactive) | > 100 µM (inactive) | 87.7 | > 100 µM (inactive) | > 100 µM (inactive) | > 100 µM (inactive) | > 100 µM (inactive) |  | > 100 µM (inactive) | > 100 µM (inactive) | > 100 µM (inactive) | > 100 µM (inactive) |
| COC(=O)C(/C(=N/NC(=O)c1ccncc1)C(=O)Nc1ccccc1OC)c1nc2ccc(Cl)cc2nc1O (stereo unspecified) |  | > 100 µM (inactive) | > 100 µM (inactive) | > 100 µM (inactive) | > 100 µM (inactive) | > 100 µM (inactive) | > 100 µM (inactive) | > 100 µM (inactive) | > 100 µM (inactive) | 63.5 | > 100 µM (inactive) | > 100 µM (inactive) | 92 µM (inactive) | > 100 µM (inactive) | > 100 µM (inactive) | > 100 µM (inactive) | > 100 µM (inactive) | > 100 µM (inactive) | > 100 µM (inactive) |
| COC(=O)[C@H](CNC(=O)/C=C/c1ccc(OC(C)=O)c(OC(C)=O)c1)NC(=O)/C=C/c1ccc(OC(C)=O)c(OC(C)=O)c1 | > 100 µM (inactive) | > 100 µM (inactive) | > 100 µM (inactive) | > 100 µM (inactive) | > 100 µM (inactive) | > 100 µM (inactive) | > 100 µM (inactive) | > 100 µM (inactive) |  | 69.7 | > 100 µM (inactive) | > 100 µM (inactive) | > 100 µM (inactive) |  | > 100 µM (inactive) | 62.7 µM (inactive) | > 100 µM (inactive) | > 100 µM (inactive) | > 100 µM (inactive) |
| CC(CNC(=O)c1ccccc1)(CNC(=O)c1ccccc1)[N+](=O)[O-] | 7.05 µM (inactive) | > 100 µM (inactive) | 51.3 µM (inactive) | > 100 µM (inactive) | > 100 µM (inactive) | > 100 µM (inactive) | > 100 µM (inactive) | > 100 µM (inactive) | > 100 µM (inactive) | > 100 | > 100 µM (inactive) | > 100 µM (inactive) | > 100 µM (inactive) | > 100 µM (inactive) | > 100 µM (inactive) | > 100 µM (inactive) | > 100 µM (inactive) | > 100 µM (inactive) |  |

— ChEMBL document CHEMBL1201862, “PubChem BioAssay data set” (2004)
